Experimental data from patent publication US20070026026A1 (priority 2005, published 2007).

How the values were obtained:
[1] = Example 2.1 stability of losartan potassium in phosphate buffers at 50° C. (HPLC); format: physicochemical; conditions: for stability (percent active on a weight basis): 50° C.; for degradation of the original losartan: pH 7.4
Method: The three variables were the pH of the buffer, cation of the buffer, and concentration of the phosphate salt in the buffer. The pHs studied were 7.4 and 8.2; the cations studied were potassium and sodium; and the concentrations studied were 10 mM and 100 mM.
The materials used were sodium phosphate buffer (SPB) and potassium phosphate buffer (PPB) prepared in-house and losartan potassium. […] A sample of each solution was taken and analyzed by HPLC. The different solutions were then stored at 50° C. […] The stability (measured as percent active on a weight

[2] = Example 2.2 A stability of losartan potassium in SPB with propylene glycol at 50° C. (HPLC); format: physicochemical; conditions: for degradation: after more than 1 month (816 hours) at 50° C.
Method: X represents the amount in mL of SPB added to provide 10 mL. […] Each formulation was evaluated by HPLC. The samples were then stored at 50° C. for about 1 month and analyzed periodically.

[3] = Example 2.3 stability of saccharin-containing compositions at 50° C. (HPLC); format: physicochemical; conditions: for stability of losartan (percent active): saccharin sodium, 50° C.
Method: Two different concentrations of glycerin (30 percent and 40 percent by volume) and 2 different pHs of the phosphate buffer (7.4 and 8.2) were studied. Four different compositions that contained saccharin were prepared and analyzed. The materials used were losartan potassium; saccharin sodium; propylene glycol (PG); glycerin; and potassium phosphate buffer (PPB) prepared in-house. […] Three mL of PG were then added to the vortexed mixture, (17-X) mL of glycerin added, and this mixture vortexed for 2 minutes. X represents the amount in mL of PPB added to provide 17 mL. Each sample was then stored at 50° C. and evaluated by HPLC periodically.

[4] = Another study (not described): PG and PEG 400 effect on stability of losartan potassium; format: physicochemical
Source text: Therefore, in one embodiment PG is preferred over PEG 400.

[5] = cited from earlier work
[6] = Example 2.2 C stability with PG, glycerin and xylitol at 50° C. (HPLC); format: physicochemical; conditions: after about 1 month at 50° C.
Method: Even with 30 percent glycerin present, in some embodiments it is desired to add additional sweetener as the composition may not be sweet enough for some patients. Accordingly, a stronger sweetener was considered for use in the composition. […] Thus, the stability of a composition of propylene glycol (PG), glycerin, and xylitol was studied and evaluated. […] PG (1.5 mL) was then added, this mixture was vortexed for 1 minute, 3 mL of glycerin was added, and this mixture was finally vortexed for 1 minute. […] Four different formulations were prepared and analyzed. Each sample was evaluated by HPLC. The samples were then stored at 50° C. for about 1 month and analyzed periodically.

[7] = Example 2.2 B stability with PG and glycerin or PG and PEG 400 at 50° C. (HPLC); format: physicochemical; conditions: for degradation: after 816 hours at 50° C.
Method: X represents the amount in mL of SPB added to provide 8.5 mL. […] Five different formulations were prepared and analyzed. Each sample was evaluated by HPLC. The samples were then stored at 50° C. for about 1 month and analyzed periodically.

[8] = Example 1.1 solubility of losartan potassium with and without buffering agent (visual); format: physicochemical; conditions: for solubility: thermodynamic from solid, visual
Method: After 24 hours, the samples were examined. […] Formulations at these pHs of about 7 or greater should prevent precipitation of the drug.

[9] = Example 1.2 solubility of losartan potassium in sodium phosphate buffers by HPLC; format: physicochemical; conditions: for solubility at 0 h / solubility at 48 h / solubility at 480 h: sodium phosphate buffer, aqueous buffer, thermodynamic from solid, room temperature, HPLC
Source text: The materials used were sodium phosphate buffer (SPB) prepared in-house and losartan potassium. […] A sample of each solution was then taken and analyzed by HPLC. […] Each sample was stored at room temperature and data was collected as a function of time.

CCCCc1nc(Cl)c(CO)n1Cc1ccc(-c2ccccc2-c2nnn[nH]2)cc1.[K] [losartan potassium, 2-butyl-4-chloro-1-[p-(o-1H-tetrazol-5-ylphenyl)benzyl]imidazole-5-methanol monopotassium salt]
stability (percent active on a weight basis) ([1]; PPB, 10 mM, pH = 7.4, 0 hours): 99.93%
stability (percent active on a weight basis) ([1]; PPB, 10 mM, pH = 7.4, 24 hours): 99.90%
stability (percent active on a weight basis) ([1]; PPB, 10 mM, pH = 7.4, 264 hours): 99.14%
stability (percent active on a weight basis) ([1]; PPB, 10 mM, pH = 7.4, 672 hours): 98.74%
stability (percent active on a weight basis) ([1]; PPB, 100 mM, pH = 7.4, 0 hours): 99.93%
stability (percent active on a weight basis) ([1]; PPB, 100 mM, pH = 7.4, 24 hours): 99.90%
stability (percent active on a weight basis) ([1]; PPB, 100 mM, pH = 7.4, 264 hours): 99.32%
stability (percent active on a weight basis) ([1]; PPB, 100 mM, pH = 7.4, 672 hours): 98.84%
degradation of the original losartan ([1]; SPB 10 mM, after about 1 month at 50° C.): around 1.5%
degradation of the original losartan ([1]; SPB 100 mM, after about 1 month at 50° C.): about 1%
stability (percent active on a weight basis) ([1]; SPB, 10 mM, pH = 7.4, 0 hours): 99.96%
stability (percent active on a weight basis) ([1]; SPB, 10 mM, pH = 7.4, 24 hours): 99.90%
stability (percent active on a weight basis) ([1]; SPB, 10 mM, pH = 7.4, 264 hours): 99.12%
stability (percent active on a weight basis) ([1]; SPB, 10 mM, pH = 7.4, 672 hours): 98.49%
stability (percent active on a weight basis) ([1]; SPB, 10 mM, pH = 8.2, 0 hours): 99.93%
stability (percent active on a weight basis) ([1]; SPB, 10 mM, pH = 8.2, 24 hours): 99.91%
stability (percent active on a weight basis) ([1]; SPB, 10 mM, pH = 8.2, 264 hours): 99.68%
stability (percent active on a weight basis) ([1]; SPB, 10 mM, pH = 8.2, 672 hours): 99.59%
stability (percent active on a weight basis) ([1]; SPB, 100 mM, pH = 7.4, 0 hours): 99.93%
stability (percent active on a weight basis) ([1]; SPB, 100 mM, pH = 7.4, 24 hours): 99.90%
stability (percent active on a weight basis) ([1]; SPB, 100 mM, pH = 7.4, 264 hours): 99.34%
stability (percent active on a weight basis) ([1]; SPB, 100 mM, pH = 7.4, 672 hours): 98.90%
stability (percent active on a weight basis) ([1]; SPB, 100 mM, pH = 8.2, 0 hours): 99.93%
stability (percent active on a weight basis) ([1]; SPB, 100 mM, pH = 8.2, 24 hours): 99.91%
stability (percent active on a weight basis) ([1]; SPB, 100 mM, pH = 8.2, 264 hours): 99.77%
stability (percent active on a weight basis) ([1]; SPB, 100 mM, pH = 8.2, 672 hours): 99.66%
degradation ([1]; SPB, pH of 8.2, after about 1 month at 50° C.): about 0.4%
degradation ([2]; 10 percent PG in SPB pH 7.2): less than 0.4%
degradation ([2]; 15 percent PG in SPB pH 7.2): less than 0.4%
stability in words ([2]; 30 percent PG in SPB pH 7.2, 50° C.): unexpectedly good
stability of losartan (percent active) ([3]; 30% glycerin, PPB pH = 7.4, PG, 0 hour): 99.88%
stability of losartan (percent active) ([3]; 30% glycerin, PPB pH = 7.4, PG, 72 hours): 99.91%
stability of losartan (percent active) ([3]; 30% glycerin, PPB pH = 7.4, PG, 288 hours): 99.88%
stability of losartan (percent active) ([3]; 30% glycerin, PPB pH = 7.4, PG, 1152 hours): 99.65%
stability of losartan (percent active) ([3]; 30% glycerin, PPB pH = 8.2, PG, 0 hour): 99.88%
stability of losartan (percent active) ([3]; 30% glycerin, PPB pH = 8.2, PG, 72 hours): 99.88%
stability of losartan (percent active) ([3]; 30% glycerin, PPB pH = 8.2, PG, 288 hours): 99.89%
stability of losartan (percent active) ([3]; 30% glycerin, PPB pH = 8.2, PG, 1152 hours): 99.86%
stability of losartan (percent active) ([3]; 40% glycerin, PPB pH = 7.4, PG, 0 hour): 99.88%
stability of losartan (percent active) ([3]; 40% glycerin, PPB pH = 7.4, PG, 72 hours): 99.88%
stability of losartan (percent active) ([3]; 40% glycerin, PPB pH = 7.4, PG, 288 hours): 99.88%
stability of losartan (percent active) ([3]; 40% glycerin, PPB pH = 7.4, PG, 1152 hours): 99.73%
stability of losartan (percent active) ([3]; 40% glycerin, PPB pH = 8.2, PG, 0 hour): 99.88%
stability of losartan (percent active) ([3]; 40% glycerin, PPB pH = 8.2, PG, 72 hours): 99.88%
stability of losartan (percent active) ([3]; 40% glycerin, PPB pH = 8.2, PG, 288 hours): 99.92%
stability of losartan (percent active) ([3]; 40% glycerin, PPB pH = 8.2, PG, 1152 hours): 99.82%
degradation in words ([3]; saccharin-containing compositions, after 12 days (288 hours) and even at 1152 hours at 50° C.): Minimal degradation
effect of PEG 400 on stability ([4]; in SPB): improve the stability
effect of PG on stability ([4]; in SPB): improve the stability
effect of PEG 400 on stability ([4]; in water): did not improve the stability
solubility in alcohols [5]: soluble
solubility in chloroform [5]: practically insoluble
solubility in common organic solvents, such as acetonitrile and methylethyl ketone [5]: slightly soluble
solubility in water [5]: freely soluble
degradation ([6]; 5 mg/mL, 1 percent xylitol): about 0.45%
degradation ([6]; 5 mg/mL, 2 percent xylitol): about 0.5%
degradation ([6]; 25 mg/mL, 1 percent xylitol): approximately 0.7%
degradation ([6]; 25 mg/mL, 2 percent xylitol): approximately 0.7%
degradation ([7]; SPB with 15 percent PG and 10 percent PEG 400): 0.33%
degradation ([7]; SPB with 15 percent PG and up to 30 percent glycerin): less than 0.5%
effect on stability in words ([7]; increasing PEG 400 to 30 percent in the composition, 50° C.): decreased the stability
crystals after storage of the solubility sample ([8]; SPB pH 6.2, stored at 50° C. overnight, examined after 24 hours): crystals were observed
solubility ([8]; organic solvent or mixture, Ethanol): 130 mg/mL
solubility ([8]; sodium phosphate buffer, aqueous buffer, SPB 10 mM, pH 1.9): 0.048 mg/mL
solubility ([8]; sodium phosphate buffer, aqueous buffer, SPB 10 mM, pH 6.2): > 241 mg/mL
solubility ([8]; sodium phosphate buffer, aqueous buffer, SPB 10 mM, pH 7.2): 300 mg/mL
solubility ([8]; sodium phosphate buffer, aqueous buffer, SPB 10 mM, pH 8.2): > 253 mg/mL
solubility ([8]; Water, pH 5.5): > 243 mg/mL
solubility ([8]; water with HCl, aqueous buffer, Water + HCl, pH 2.1): 0.28 mg/mL
solubility ([8]; water with NaOH, aqueous buffer, Water + NaOH, pH 11.8): > 239 mg/mL
precipitation on storage ([9]; SPB pH of 6.2): some re-precipitation was observed
solubility in words ([9]; pH under 6.2): practically insoluble
precipitation on storage ([9]; pHs of 7.4 and higher): no precipitation was observed
solubility at 0 h ([9]; SPB pH = 1.7): 1070 µg/mL
solubility at 48 h ([9]; SPB pH = 1.7): 152 µg/mL
solubility at 480 h ([9]; SPB pH = 1.7): 30 µg/mL
solubility at 0 h ([9]; SPB pH = 6.2): 1620 µg/mL
solubility at 48 h ([9]; SPB pH = 6.2): 1650 µg/mL
solubility at 480 h ([9]; SPB pH = 6.2): 60 µg/mL
solubility at 0 h ([9]; SPB pH = 7.4): > 250000 µg/mL
solubility at 48 h ([9]; SPB pH = 7.4): > 250000 µg/mL
solubility at 480 h ([9]; SPB pH = 7.4): > 250000 µg/mL
solubility at 0 h ([9]; SPB pH = 8.2): > 250000 µg/mL
solubility at 48 h ([9]; SPB pH = 8.2): > 250000 µg/mL
solubility at 480 h ([9]; SPB pH = 8.2): > 250000 µg/mL
